The results in this text go back to patent US20070298413A1, “Topoisomerase Modulators Assays” (AstraZeneca AB, priority 2003, published 2007).

Structures are written as SMILES. Values after ≈ are worked out from the molar mass of the structure shown. Where two headings read alike, the source gives them in different places.

The subject of one assay is H. influenzae. Kind of assay: minimum inhibitory concentration (MIC). Type of assay: cell-based. The conditions noted are these: Haemophilus influenzae.
Assay [1] has as its system clone 19.4 (relaxation-stimulated promoter upstream of lacZ in pSB2). Kind of assay: microtiter plate β-galactosidase assay, clone 19.4. It is filed as cell-based, E. coli. As to conditions: nalidixic acid 200 μg/ml, 2 hours at 37° C., treated vs control culture. An excerpt: The T4 terminator (T4 t) and lacZ gene were inserted into a plasmid expression vector pTB244 to create the construct pSB2. In this construct, the transcription of the lacZ gene, without a promoter, is prevented by the upstream T4 terminator, such that insertion of a promoter is necessary for lacZ expression. A random E. coli DNA library was constructed by inserting Escherichia coli chromosomal Sau3A fragments into the BamHI site of the screening vector pSB2, upstream of the promoter-less lacZ gene.
The library was transformed into the lacZ^− E. coli host strain MSD1011 (MM294 Δlac=E. coli K12 hsdR Δlac). […] Blue transformants were screened for the presence of relaxation-stimulated promoters using the microtiter plate β-galactosidase assay.
The β-galactosidase assays were carried out in 96-well, flat bottom microtiter plates. Blue (lacZ^+) ampicillin-resistant colonies of all sizes and shades of blue were purified, inoculated into 200 μl media (L-broth containing 50 μg/ml ampicillin) and incubated overnight at 37° C. […] Before carrying out the β-galactosidase assay, absorbance WAS read automatically on the Molecular Devices Microplate Reader at 595 nm in order to measure the differences in the cell titers between control and treated cultures. […] The plates were read at 28° C. on a Molecular Devices Microplate Reader at 420 nm for 2 mins at 0.09 sec intervals.

Assay [2] concerns pRAS101, gyrA promoter linked to a lacZ gene. Description: microtiter plate β-galactosidase assay, pRAS101 positive control. The conditions noted are these: nalidixic acid 200 μg/ml, 2 hours at 37° C. It is filed as cell-based, E. coli. As for the experimental part:
The β-galactosidase assays were carried out in 96-well, flat bottom microtiter plates. Blue (lacZ^+) ampicillin-resistant colonies of all sizes and shades of blue were purified, inoculated into 200 μl media (L-broth containing 50 μg/ml ampicillin) and incubated overnight at 37° C. Cultures were then diluted 1:20 into fresh broth and incubated for 1.5 hours at 37° C. with shaking at 230 rpm to mid log phase. At this point half of each culture was transferred to a duplicate microtitre plate to which nalidixic acid had been added to give a final concentration of 200 μg/ml. Both plates were incubated at 37° C. for 2 hours to allow expression of the reporter gene that was then assayed. Before carrying out the β-galactosidase assay, absorbance WAS read automatically on the Molecular Devices Microplate Reader at 595 nm in order to measure the differences in the cell titers between control and treated cultures. 25 μl of β-galactosidase assay emulsion (prepared as follows: 5 mL ONPG (O-nitrophenyl-β-D-galactopyranodside) at 4 mg/ml, 5 mL 1× Z-buffer, 0.3 mL 1% SDS, 0.2 mL chloroform, 0.2 mL ether), was added to each well. The plates were read at 28° C. on a Molecular Devices Microplate Reader at 420 nm for 2 mins at 0.09 sec intervals. […]

The test system of assay [3] is bacteria that carry a DNA relaxation-stimulated lacZ gene on a plasmid (pRAS101, 19.4, pSB2.his). Kind of assay: plate lawn technique on X-Gal medium (blue ring). Type of assay: cell-based, E. coli. The conditions noted are these: spotted onto lawn of bacteria, overnight growth at 37° C.; clones pRAS101, 19.4 and pSB2.his similar. An excerpt: The principle of the screen is based on the observation that if known gyrase inhibitors are spotted onto X-Gal medium containing bacteria that carry a DNA relaxation-stimulated lacZ gene on a plasmid, clear zones of inhibition surrounded by a blue ring are formed after overnight growth. The blue ring presumably forms at the drug concentration where optimum relaxation-stimulation of the reporter gene has occurred before the cells are killed.
The following three clones were used: a) clone pRAS101 containing the gyrA promoter linked to the β-galactosidase gene; b) clone 19.4 (found by method described in section 3.3); and c) clone pSB2.his containing the hisD promoter linked to the β-galactosidase gene.
Cultures were grown overnight and diluted 1:1000 in (melted) L-agar cooled to 45° C. containing 50 μg/mL Ap and 60 μg/mL X-Gal. The medium was poured into 15×150 mm petri dishes immediately. After it had solidified, known gyrase inhibitors were applied automatically onto the solid agar surface using a Tomtec Quadra 96 machine as follows: 20 μg nalidixic acid (Nx), 100 μg novobiocin (Novo), 2 μg ciprofloxacin (Cipro), 10 μg coumermycin (Cou), 2 μg cinoxacin (Cinox), 2 μg pefloxacin (Pef), 2 μg fleroxacin (Fle), 2 μg flumequine (Flu) and 2 μg norfloxacin (Nor). […]

`CO[C@@H]1[C@@H](OC(N)=O)[C@@H](O)[C@H](Oc2ccc3c(O)c(NC(=O)c4ccc(O)c(CC=C(C)C)c4)c(=O)oc3c2C)OC1(C)C` [novobiocin] had an MIC in the assay with H. influenzae of 0.125 µg/mL (≈ 0.204 µM). For the compound `CCn1cc(C(=O)O)c(=O)c2ccc(C)nc21` [nalidixic acid], in assay [1], the “relaxation stimulated transcription ratio” value was 6.1. Besides, in assay [2], the “stimulation ratio (average)” value is listed as 3.1 fold. With `CC1(C)S[C@@H]2[C@H](NC(=O)[C@H](N)c3ccccc3)C(=O)N2[C@H]1C(=O)O` [ampicillin], in the assay with H. influenzae (measured MIC against H. influenzae, read-out: MIC), the MIC was 0.125 µg/mL (≈ 0.358 µM). As to `O=C(N[C@H](CO)[C@H](O)c1ccc([N+](=O)[O-])cc1)C(Cl)Cl` [chloramphenicol], the “stimulation of the DNA relaxation-stimulated reporter gene (blue ring)” value in assay [3] is reported as “little to no stimulation”.
